# Measurements from ChEMBL document CHEMBL1201862, “PubChem BioAssay data set” (2004).
#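 Exposure lasted 48 hours, with cells grown in 96-well plates and compounds tested at five concentrations. Abbreviation: GI50, concentration required for 50% inhibition of growth.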 Active and inactive are the calls of the source. Rule as the data show it: active = GI50 up to about 1.1 µM and inactive = higher.
# Experiments:
# Test in all cases: inhibition of tumour cell growth, NCI panel, 48 h
# T47D = system: T47D
# NCI-H226 = system: NCI-H226
# UACC-62 = system: UACC-62
# TK-10 = system: TK-10
# Malme-3M = system: Malme-3M
# SK-OV-3 = system: SK-OV-3
# ACHN = system: ACHN
# UACC-257 = system: UACC-257
# SF-539 = system: SF-539
# IGROV-1 = system: IGROV-1
# OVCAR-5 = system: OVCAR-5
# RXF 393 = system: RXF 393
# KM12 = system: KM12
# NCI-H522 = system: NCI-H522
# OVCAR-4 = system: OVCAR-4
# SK-MEL-28 = system: SK-MEL-28
# MOLT-4 = system: MOLT-4
# HOP-92 = system: HOP-92
# SK-MEL-5 = system: SK-MEL-5
# A498 = system: A498
SMILES,GI50 (T47D),GI50 (NCI-H226),GI50 (UACC-62),GI50 (TK-10),GI50 (Malme-3M),GI50 (SK-OV-3),GI50 (ACHN),GI50 (UACC-257),GI50 (SF-539),GI50 (IGROV-1),GI50 (OVCAR-5),GI50 (RXF 393),GI50 (KM12),GI50 (NCI-H522),GI50 (OVCAR-4),GI50 (SK-MEL-28),GI50 (MOLT-4),GI50 (HOP-92),GI50 (SK-MEL-5),GI50 (A498)
Cn1c2ccccc2c(=NNc2ccc(S(N)(=O)=O)cc2)c2ccccc21,5.45 µM (inactive),10.9 µM (inactive),14.7 µM (inactive),15 µM (inactive),17.9 µM (inactive),20.2 µM (inactive),8.05 µM (inactive),17.1 µM (inactive),22.5 µM (inactive),17.7 µM (inactive),24.4 µM (inactive),16.2 µM (inactive),11.2 µM (inactive),11.2 µM (inactive),14.3 µM (inactive),18.6 µM (inactive),3.95 µM (inactive),8.85 µM (inactive),8.24 µM (inactive),
CC(C)(C)C1=C(Br)C(C(C)(C)C)OP1(=O)O (stereo not drawn),> 100 µM (inactive),> 100 µM (inactive),> 100 µM (inactive),> 100 µM (inactive),> 100 µM (inactive),> 100 µM (inactive),> 100 µM (inactive),> 100 µM (inactive),> 100 µM (inactive),> 100 µM (inactive),> 100 µM (inactive),,> 100 µM (inactive),> 100 µM (inactive),> 100 µM (inactive),> 100 µM (inactive),,> 100 µM (inactive),> 100 µM (inactive),> 100 µM (inactive)
Cc1cc(/N=C/c2ccc(C#N)cc2)n(-c2ccccc2)n1,48.9 µM (inactive),> 100 µM (inactive),80.4 µM (inactive),> 100 µM (inactive),> 100 µM (inactive),51.3 µM (inactive),> 100 µM (inactive),> 100 µM (inactive),99.3 µM (inactive),68.9 µM (inactive),> 100 µM (inactive),> 100 µM (inactive),56.1 µM (inactive),72.4 µM (inactive),> 100 µM (inactive),> 100 µM (inactive),42.6 µM (inactive),> 100 µM (inactive),36 µM (inactive),
O=C1Cc2c([nH]c3c(Cl)cccc23)-c2ccccc2N1,> 100 µM (inactive),> 100 µM (inactive),> 100 µM (inactive),> 100 µM (inactive),> 100 µM (inactive),> 100 µM (inactive),> 100 µM (inactive),,> 100 µM (inactive),> 100 µM (inactive),> 100 µM (inactive),,> 100 µM (inactive),> 100 µM (inactive),> 100 µM (inactive),> 100 µM (inactive),> 100 µM (inactive),95.7 µM (inactive),> 100 µM (inactive),> 100 µM (inactive)
Nc1nc2c(ncn2Cc2ccccc2CO)c(=O)[nH]1,> 100 µM (inactive),> 100 µM (inactive),> 100 µM (inactive),> 100 µM (inactive),> 100 µM (inactive),> 100 µM (inactive),> 100 µM (inactive),> 100 µM (inactive),> 100 µM (inactive),> 100 µM (inactive),> 100 µM (inactive),,> 100 µM (inactive),> 100 µM (inactive),> 100 µM (inactive),> 100 µM (inactive),> 100 µM (inactive),> 100 µM (inactive),> 100 µM (inactive),> 100 µM (inactive)
Cc1ccc(S(=O)(=O)NC(=O)NC(CC(=O)O)C(=O)O)cc1 (stereo not drawn),> 100 µM (inactive),,> 100 µM (inactive),> 100 µM (inactive),> 100 µM (inactive),> 100 µM (inactive),> 100 µM (inactive),> 100 µM (inactive),> 100 µM (inactive),> 100 µM (inactive),> 100 µM (inactive),> 100 µM (inactive),> 100 µM (inactive),> 100 µM (inactive),> 100 µM (inactive),> 100 µM (inactive),> 100 µM (inactive),> 100 µM (inactive),> 100 µM (inactive),
CCOC(=O)C1C(c2ccc(OC)cc2)c2c(nn(-c3ccccc3)c2O)CC1(C)O (stereo not drawn),12.9 µM (inactive),,1.54 µM (inactive),50 µM (inactive),> 100 µM (inactive),,23 µM (inactive),3.31 µM (inactive),92.7 µM (inactive),> 100 µM (inactive),> 100 µM (inactive),,7.1 µM (inactive),50 µM (inactive),96.6 µM (inactive),37.5 µM (inactive),0.596 µM (active),92.3 µM (inactive),2.81 µM (inactive),> 100 µM (inactive)
C=C1CC(Cn2cc(C)c(=O)[nH]c2=O)(c2ccc(Cl)cc2)OC1=O (stereo not drawn),2.08 µM (inactive),13.4 µM (inactive),2.44 µM (inactive),1.68 µM (inactive),1.88 µM (inactive),14.9 µM (inactive),3.83 µM (inactive),1.4 µM (inactive),10.9 µM (inactive),1.53 µM (inactive),14.9 µM (inactive),,13.6 µM (inactive),0.594 µM (active),1.72 µM (inactive),2.18 µM (inactive),0.94 µM (active),0.438 µM (active),2.67 µM (inactive),5.94 µM (inactive)
Cn1c2c(c3ccccc31)CCN1C(=O)CN(C(=O)C3CCCCC3)CC21 (stereo not drawn),> 100 µM (inactive),> 100 µM (inactive),> 100 µM (inactive),> 100 µM (inactive),> 100 µM (inactive),> 100 µM (inactive),> 100 µM (inactive),> 100 µM (inactive),> 100 µM (inactive),> 100 µM (inactive),> 100 µM (inactive),> 100 µM (inactive),> 100 µM (inactive),> 100 µM (inactive),> 100 µM (inactive),> 100 µM (inactive),> 100 µM (inactive),> 100 µM (inactive),> 100 µM (inactive),
O=C1NC(N2CCCCC2)=N/C1=C\c1ccco1,> 100 µM (inactive),67.9 µM (inactive),> 100 µM (inactive),> 100 µM (inactive),> 100 µM (inactive),> 100 µM (inactive),> 100 µM (inactive),> 100 µM (inactive),> 100 µM (inactive),54.7 µM (inactive),> 100 µM (inactive),> 100 µM (inactive),> 100 µM (inactive),> 100 µM (inactive),> 100 µM (inactive),> 100 µM (inactive),> 100 µM (inactive),> 100 µM (inactive),> 100 µM (inactive),
CC[C@]1(Cc2ccc(OC)c(OC)c2)C=[N+]([O-])O[C@H](OC2CCCC2(c2ccccc2)c2ccccc2)[C@@H]1OC(=O)c1ccccc1 (stereo partly drawn),2.73 µM (inactive),18 µM (inactive),8.67 µM (inactive),,,> 47.9 µM (inactive),7.83 µM (inactive),14 µM (inactive),> 100 µM (inactive),3.67 µM (inactive),22.3 µM (inactive),4.35 µM (inactive),3.9 µM (inactive),3.87 µM (inactive),7.38 µM (inactive),20.8 µM (inactive),2.63 µM (inactive),3.02 µM (inactive),4.37 µM (inactive),
Cc1cccc2c(=O)c3c(O)cc4c(c3n(C)c12)C=CC(C)(C)O4,,29.5 µM (inactive),> 100 µM (inactive),> 100 µM (inactive),> 100 µM (inactive),> 100 µM (inactive),> 100 µM (inactive),60.1 µM (inactive),87.5 µM (inactive),> 100 µM (inactive),59.3 µM (inactive),5.93 µM (inactive),29 µM (inactive),> 100 µM (inactive),43.9 µM (inactive),> 100 µM (inactive),29.1 µM (inactive),21.6 µM (inactive),29.9 µM (inactive),> 100 µM (inactive)
N#CCc1nc(-c2cc3c(ccc4ccccc43)oc2=O)cs1,27.8 µM (inactive),24.7 µM (inactive),21.7 µM (inactive),18.1 µM (inactive),> 100 µM (inactive),30.3 µM (inactive),27.5 µM (inactive),26.9 µM (inactive),21.5 µM (inactive),15.2 µM (inactive),> 100 µM (inactive),23.4 µM (inactive),33.6 µM (inactive),13 µM (inactive),24.3 µM (inactive),72.6 µM (inactive),> 100 µM (inactive),20.3 µM (inactive),69.3 µM (inactive),
N#CC(NC12CC3CC(CC(C3)C1)C2)c1ccc2c(c1)OCO2 (stereo not drawn),> 100 µM (inactive),> 100 µM (inactive),> 100 µM (inactive),> 100 µM (inactive),> 100 µM (inactive),> 100 µM (inactive),> 100 µM (inactive),> 100 µM (inactive),> 100 µM (inactive),> 100 µM (inactive),> 100 µM (inactive),> 100 µM (inactive),> 100 µM (inactive),> 100 µM (inactive),> 100 µM (inactive),> 100 µM (inactive),> 100 µM (inactive),89.1 µM (inactive),> 100 µM (inactive),
Cc1nc(N)sc1C(=O)/C=C\c1ccc2c(c1)OCO2,,> 100 µM (inactive),> 100 µM (inactive),> 100 µM (inactive),> 100 µM (inactive),> 100 µM (inactive),> 100 µM (inactive),> 100 µM (inactive),> 100 µM (inactive),> 100 µM (inactive),> 100 µM (inactive),> 100 µM (inactive),> 100 µM (inactive),> 100 µM (inactive),> 100 µM (inactive),> 100 µM (inactive),> 100 µM (inactive),> 100 µM (inactive),> 100 µM (inactive),> 100 µM (inactive)
